Measurements reported in publication PMC5512571 (Cancer cell, 2017).

What was measured:
Assay in all cases: in vitro kinase panel profiling
Assay type in all cases: biochemical
TNK1 = biological target: T1, TNK1 (Homo sapiens, UniProt Q13470)
T1 sequence (Q13470 1-666): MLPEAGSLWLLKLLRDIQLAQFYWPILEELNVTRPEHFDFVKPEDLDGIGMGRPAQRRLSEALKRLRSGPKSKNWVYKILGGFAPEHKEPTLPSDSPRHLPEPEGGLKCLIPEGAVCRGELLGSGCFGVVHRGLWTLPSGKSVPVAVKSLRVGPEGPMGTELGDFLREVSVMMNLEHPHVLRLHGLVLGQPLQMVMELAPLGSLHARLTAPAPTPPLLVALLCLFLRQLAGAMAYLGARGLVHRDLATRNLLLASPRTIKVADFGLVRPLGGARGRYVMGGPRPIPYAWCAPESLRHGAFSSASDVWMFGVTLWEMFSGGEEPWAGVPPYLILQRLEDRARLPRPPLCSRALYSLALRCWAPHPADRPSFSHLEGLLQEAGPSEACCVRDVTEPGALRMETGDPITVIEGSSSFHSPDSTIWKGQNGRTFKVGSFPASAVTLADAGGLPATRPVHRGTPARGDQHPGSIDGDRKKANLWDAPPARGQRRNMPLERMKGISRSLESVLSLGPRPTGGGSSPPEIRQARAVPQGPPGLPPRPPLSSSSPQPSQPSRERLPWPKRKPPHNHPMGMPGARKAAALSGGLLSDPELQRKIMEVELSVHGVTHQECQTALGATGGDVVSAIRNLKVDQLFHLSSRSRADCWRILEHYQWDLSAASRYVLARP

NUAK1 = biological target: T2, NUAK1 (Homo sapiens, UniProt O60285)
T2 sequence (O60285 1-661): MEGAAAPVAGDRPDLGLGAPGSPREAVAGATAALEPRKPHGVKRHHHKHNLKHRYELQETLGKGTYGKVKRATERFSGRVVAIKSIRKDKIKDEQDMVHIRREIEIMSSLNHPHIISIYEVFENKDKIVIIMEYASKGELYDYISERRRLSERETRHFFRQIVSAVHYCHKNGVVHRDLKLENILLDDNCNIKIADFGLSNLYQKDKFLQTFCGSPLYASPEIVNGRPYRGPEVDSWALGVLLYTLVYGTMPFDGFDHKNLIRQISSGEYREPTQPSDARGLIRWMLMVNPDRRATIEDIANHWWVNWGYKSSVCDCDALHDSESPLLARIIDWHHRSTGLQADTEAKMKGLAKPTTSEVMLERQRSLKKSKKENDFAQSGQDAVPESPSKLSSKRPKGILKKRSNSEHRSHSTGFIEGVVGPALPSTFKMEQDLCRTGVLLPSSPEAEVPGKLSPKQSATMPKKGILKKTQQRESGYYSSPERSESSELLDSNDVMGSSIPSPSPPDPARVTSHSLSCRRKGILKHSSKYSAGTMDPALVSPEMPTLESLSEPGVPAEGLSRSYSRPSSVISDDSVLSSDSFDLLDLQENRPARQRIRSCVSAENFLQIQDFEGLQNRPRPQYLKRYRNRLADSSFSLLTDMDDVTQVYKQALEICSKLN

JAK1 = JAK1 (Homo sapiens, UniProt P23458)
LRRK2 = LRRK2 (Homo sapiens, UniProt Q5S007)
FLT3 = FLT3 (Homo sapiens, UniProt P36888)
NUAK2 = biological target: T3, NUAK2 (Homo sapiens, UniProt Q9H093)
T3 sequence (Q9H093 1-628): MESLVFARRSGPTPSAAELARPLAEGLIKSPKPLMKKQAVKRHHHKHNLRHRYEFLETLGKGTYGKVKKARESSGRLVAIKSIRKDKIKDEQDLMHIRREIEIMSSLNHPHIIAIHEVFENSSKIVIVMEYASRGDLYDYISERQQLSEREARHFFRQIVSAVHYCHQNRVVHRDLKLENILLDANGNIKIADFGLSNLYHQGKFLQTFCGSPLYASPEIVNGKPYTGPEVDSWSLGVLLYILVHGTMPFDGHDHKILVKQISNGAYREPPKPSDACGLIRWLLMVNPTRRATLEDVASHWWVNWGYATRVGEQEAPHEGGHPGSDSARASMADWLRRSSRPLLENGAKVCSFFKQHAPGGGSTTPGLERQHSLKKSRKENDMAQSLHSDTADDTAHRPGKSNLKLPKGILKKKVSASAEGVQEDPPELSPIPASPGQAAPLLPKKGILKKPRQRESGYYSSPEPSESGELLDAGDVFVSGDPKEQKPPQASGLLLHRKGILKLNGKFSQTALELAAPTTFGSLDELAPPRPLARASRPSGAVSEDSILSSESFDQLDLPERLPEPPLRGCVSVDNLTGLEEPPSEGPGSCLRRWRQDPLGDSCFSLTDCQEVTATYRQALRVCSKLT

JAK3 = biological target: T4, JAK3 (Homo sapiens, UniProt P52333)
T4 sequence (P52333 1-1124): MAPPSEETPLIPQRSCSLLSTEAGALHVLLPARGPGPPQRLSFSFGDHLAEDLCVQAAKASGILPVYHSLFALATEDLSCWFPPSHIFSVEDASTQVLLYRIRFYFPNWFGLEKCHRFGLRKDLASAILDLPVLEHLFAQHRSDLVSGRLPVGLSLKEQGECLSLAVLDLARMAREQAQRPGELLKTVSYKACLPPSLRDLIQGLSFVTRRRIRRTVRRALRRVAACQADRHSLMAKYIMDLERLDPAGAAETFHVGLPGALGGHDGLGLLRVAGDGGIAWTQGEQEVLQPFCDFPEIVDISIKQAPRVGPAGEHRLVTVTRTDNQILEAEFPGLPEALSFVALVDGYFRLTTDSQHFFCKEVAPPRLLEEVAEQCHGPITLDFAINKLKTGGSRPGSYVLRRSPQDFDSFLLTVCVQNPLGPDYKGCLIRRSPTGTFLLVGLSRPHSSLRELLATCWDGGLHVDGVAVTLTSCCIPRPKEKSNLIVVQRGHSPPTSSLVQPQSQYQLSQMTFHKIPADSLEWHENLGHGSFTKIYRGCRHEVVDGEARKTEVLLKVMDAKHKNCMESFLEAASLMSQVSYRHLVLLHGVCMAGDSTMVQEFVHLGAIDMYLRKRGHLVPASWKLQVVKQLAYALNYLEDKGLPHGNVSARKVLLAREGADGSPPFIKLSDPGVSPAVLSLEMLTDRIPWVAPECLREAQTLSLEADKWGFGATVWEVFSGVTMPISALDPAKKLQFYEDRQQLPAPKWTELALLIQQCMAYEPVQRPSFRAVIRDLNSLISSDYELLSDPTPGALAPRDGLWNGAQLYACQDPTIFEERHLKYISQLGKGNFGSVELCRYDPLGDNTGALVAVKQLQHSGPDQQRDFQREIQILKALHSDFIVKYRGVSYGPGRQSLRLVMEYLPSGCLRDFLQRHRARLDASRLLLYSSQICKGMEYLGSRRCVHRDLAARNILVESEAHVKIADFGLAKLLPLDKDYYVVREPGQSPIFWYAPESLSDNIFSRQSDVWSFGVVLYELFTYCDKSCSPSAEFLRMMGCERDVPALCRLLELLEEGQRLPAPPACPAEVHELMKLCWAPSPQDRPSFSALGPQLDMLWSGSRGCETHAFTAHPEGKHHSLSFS

JAK2 = JAK2 (Homo sapiens, UniProt O60674)
TYK2 = TYK2 (Homo sapiens, UniProt P29597)

Measured: % inhibition at 250 nM

Chain of TYK2 (P29597 whole entry): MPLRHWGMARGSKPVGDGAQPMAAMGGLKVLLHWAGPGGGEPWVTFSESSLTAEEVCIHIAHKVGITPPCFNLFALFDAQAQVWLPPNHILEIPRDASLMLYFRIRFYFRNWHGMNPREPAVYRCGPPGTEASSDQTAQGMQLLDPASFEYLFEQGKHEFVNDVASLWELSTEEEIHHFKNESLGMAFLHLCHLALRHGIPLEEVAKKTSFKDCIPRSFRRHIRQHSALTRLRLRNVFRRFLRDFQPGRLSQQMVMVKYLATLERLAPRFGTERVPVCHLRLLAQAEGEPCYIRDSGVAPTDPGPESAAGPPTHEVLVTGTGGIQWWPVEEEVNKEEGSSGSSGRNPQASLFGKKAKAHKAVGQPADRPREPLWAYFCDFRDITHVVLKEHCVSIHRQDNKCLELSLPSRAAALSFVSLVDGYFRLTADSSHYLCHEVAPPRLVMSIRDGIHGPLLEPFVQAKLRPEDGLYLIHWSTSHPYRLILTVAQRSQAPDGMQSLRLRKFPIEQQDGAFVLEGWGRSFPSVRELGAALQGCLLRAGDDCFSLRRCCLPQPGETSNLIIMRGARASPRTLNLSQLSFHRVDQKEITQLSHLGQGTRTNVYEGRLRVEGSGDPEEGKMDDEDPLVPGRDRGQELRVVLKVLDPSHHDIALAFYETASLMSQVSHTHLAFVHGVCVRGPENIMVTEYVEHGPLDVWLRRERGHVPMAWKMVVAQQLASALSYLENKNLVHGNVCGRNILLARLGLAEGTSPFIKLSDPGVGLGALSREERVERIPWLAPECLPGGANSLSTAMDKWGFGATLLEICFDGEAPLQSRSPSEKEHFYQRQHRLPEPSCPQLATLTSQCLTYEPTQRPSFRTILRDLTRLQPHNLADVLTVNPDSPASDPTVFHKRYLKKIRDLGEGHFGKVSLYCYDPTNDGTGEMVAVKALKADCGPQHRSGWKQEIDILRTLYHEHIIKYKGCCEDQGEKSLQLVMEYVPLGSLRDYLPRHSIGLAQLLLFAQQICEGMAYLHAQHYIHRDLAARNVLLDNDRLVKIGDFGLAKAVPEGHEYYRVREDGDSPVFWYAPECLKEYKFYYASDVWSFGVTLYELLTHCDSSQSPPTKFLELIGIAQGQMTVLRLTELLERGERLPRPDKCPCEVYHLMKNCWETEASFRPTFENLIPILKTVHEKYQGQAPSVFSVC
Chain of JAK1 (P23458 whole entry): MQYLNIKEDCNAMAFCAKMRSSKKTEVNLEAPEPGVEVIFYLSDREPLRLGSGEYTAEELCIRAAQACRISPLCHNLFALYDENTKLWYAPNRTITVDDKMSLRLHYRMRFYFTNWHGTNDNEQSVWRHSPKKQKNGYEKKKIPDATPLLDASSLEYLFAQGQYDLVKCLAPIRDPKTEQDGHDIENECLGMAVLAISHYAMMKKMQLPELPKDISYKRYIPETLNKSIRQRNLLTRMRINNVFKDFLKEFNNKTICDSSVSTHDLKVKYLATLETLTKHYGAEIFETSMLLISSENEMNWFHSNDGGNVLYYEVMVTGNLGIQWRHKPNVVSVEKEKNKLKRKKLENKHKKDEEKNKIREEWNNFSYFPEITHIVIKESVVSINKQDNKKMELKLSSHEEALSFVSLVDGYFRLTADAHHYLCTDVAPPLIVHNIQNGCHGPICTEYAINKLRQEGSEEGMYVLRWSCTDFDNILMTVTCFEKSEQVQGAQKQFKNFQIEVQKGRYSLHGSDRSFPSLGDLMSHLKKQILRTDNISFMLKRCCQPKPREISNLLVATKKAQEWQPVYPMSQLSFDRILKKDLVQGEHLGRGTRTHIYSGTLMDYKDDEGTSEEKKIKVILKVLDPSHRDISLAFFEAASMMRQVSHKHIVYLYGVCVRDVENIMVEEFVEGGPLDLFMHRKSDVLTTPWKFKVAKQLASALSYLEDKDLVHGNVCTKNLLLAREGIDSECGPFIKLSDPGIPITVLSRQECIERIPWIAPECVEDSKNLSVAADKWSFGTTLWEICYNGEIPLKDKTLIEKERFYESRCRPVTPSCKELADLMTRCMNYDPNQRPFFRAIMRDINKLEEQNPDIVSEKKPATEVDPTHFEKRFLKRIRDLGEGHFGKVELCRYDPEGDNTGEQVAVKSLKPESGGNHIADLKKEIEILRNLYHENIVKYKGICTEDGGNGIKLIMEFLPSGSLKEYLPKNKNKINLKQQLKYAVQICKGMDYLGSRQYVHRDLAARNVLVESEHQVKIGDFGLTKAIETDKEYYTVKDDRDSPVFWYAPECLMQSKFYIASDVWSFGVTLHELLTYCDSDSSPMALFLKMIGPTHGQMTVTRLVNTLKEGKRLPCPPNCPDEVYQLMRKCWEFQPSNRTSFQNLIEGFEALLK
Chain of LRRK2 (Q5S007 whole entry): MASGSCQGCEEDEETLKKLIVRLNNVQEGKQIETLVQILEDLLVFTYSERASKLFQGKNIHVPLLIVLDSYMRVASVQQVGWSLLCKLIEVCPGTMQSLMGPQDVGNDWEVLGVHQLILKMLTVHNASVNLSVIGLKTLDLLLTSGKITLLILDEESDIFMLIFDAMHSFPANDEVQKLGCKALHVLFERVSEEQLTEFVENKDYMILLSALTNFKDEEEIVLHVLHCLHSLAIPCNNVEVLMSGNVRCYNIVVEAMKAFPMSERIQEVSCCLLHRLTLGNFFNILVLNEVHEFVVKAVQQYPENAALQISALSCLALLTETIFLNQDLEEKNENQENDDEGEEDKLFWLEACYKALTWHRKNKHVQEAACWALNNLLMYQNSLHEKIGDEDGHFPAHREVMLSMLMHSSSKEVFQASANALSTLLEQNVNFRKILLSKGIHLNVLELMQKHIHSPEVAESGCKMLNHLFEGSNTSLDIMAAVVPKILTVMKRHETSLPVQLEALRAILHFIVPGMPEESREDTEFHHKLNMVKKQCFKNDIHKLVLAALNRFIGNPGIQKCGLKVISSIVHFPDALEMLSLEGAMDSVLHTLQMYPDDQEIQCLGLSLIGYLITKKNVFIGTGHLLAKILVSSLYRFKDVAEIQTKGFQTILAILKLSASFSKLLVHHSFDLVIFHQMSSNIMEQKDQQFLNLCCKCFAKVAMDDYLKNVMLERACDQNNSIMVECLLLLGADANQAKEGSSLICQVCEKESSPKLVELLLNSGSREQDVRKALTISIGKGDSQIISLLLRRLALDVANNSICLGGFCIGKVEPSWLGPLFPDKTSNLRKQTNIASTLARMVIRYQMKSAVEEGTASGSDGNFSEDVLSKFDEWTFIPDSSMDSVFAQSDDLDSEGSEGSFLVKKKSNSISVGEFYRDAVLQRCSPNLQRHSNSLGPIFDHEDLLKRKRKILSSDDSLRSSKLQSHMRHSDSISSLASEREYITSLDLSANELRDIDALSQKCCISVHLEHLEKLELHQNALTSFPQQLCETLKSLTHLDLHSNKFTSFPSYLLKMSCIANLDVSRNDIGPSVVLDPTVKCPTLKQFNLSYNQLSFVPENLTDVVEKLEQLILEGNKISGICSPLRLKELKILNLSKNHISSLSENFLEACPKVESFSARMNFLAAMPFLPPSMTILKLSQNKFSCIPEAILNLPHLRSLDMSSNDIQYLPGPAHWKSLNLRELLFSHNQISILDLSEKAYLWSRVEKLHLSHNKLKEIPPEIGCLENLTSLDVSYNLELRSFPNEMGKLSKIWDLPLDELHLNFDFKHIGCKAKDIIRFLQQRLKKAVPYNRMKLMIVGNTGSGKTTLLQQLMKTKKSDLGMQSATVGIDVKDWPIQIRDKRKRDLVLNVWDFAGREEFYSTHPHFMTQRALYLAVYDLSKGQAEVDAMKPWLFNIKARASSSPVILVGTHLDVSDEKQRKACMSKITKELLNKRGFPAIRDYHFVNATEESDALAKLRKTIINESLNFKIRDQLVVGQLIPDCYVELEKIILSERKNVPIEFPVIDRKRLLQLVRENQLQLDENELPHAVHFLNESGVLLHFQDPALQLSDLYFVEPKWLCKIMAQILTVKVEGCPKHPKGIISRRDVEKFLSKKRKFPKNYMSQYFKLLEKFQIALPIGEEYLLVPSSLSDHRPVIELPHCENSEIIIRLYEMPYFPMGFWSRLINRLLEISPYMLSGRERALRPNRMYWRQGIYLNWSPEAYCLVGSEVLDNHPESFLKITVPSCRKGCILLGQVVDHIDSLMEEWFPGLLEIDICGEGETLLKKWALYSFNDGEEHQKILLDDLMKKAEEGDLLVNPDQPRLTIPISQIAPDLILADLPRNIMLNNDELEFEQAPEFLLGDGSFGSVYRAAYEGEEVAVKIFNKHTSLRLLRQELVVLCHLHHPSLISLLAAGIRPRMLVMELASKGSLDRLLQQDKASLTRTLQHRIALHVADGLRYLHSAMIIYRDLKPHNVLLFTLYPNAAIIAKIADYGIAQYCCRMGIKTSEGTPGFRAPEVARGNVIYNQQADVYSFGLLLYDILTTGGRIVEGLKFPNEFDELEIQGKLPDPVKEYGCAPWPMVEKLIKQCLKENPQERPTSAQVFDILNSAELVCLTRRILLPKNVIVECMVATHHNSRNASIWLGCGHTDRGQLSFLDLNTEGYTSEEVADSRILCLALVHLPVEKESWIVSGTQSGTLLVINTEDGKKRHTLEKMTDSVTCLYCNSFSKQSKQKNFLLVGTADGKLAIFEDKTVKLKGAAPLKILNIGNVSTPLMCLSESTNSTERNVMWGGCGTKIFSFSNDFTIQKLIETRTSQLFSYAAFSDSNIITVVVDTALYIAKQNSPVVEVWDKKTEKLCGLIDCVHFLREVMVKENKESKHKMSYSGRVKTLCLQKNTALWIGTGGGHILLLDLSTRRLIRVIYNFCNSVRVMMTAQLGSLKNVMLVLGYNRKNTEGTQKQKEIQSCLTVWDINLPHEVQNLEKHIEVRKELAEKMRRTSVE

CN1CCN(c2ccc(Nc3ncc(Cl)c(NC[C@H]4CCCO4)n3)cc2)CC1 [(R)-9bMS]
> 90: TNK1 | NUAK1 | JAK1 | LRRK2 | FLT3 | NUAK2 | JAK3 | JAK2 | TYK2
